These results are taken from publication PMC11996873, “Asparagine drives immune evasion in bladder cancer via RIG-I stability and type I IFN signaling” (The Journal of Clinical Investigation, 2025).

As usually defined, the Kd is the free concentration of one partner at which half of the binding sites on the other are occupied at equilibrium, for simple one-to-one binding. Read a low Kd as higher affinity.

In the assay the target is T1, RIG-I (Homo sapiens, UniProt O95786).
T1 construct: gene RIGI
T1 sequence (O95786 1-925): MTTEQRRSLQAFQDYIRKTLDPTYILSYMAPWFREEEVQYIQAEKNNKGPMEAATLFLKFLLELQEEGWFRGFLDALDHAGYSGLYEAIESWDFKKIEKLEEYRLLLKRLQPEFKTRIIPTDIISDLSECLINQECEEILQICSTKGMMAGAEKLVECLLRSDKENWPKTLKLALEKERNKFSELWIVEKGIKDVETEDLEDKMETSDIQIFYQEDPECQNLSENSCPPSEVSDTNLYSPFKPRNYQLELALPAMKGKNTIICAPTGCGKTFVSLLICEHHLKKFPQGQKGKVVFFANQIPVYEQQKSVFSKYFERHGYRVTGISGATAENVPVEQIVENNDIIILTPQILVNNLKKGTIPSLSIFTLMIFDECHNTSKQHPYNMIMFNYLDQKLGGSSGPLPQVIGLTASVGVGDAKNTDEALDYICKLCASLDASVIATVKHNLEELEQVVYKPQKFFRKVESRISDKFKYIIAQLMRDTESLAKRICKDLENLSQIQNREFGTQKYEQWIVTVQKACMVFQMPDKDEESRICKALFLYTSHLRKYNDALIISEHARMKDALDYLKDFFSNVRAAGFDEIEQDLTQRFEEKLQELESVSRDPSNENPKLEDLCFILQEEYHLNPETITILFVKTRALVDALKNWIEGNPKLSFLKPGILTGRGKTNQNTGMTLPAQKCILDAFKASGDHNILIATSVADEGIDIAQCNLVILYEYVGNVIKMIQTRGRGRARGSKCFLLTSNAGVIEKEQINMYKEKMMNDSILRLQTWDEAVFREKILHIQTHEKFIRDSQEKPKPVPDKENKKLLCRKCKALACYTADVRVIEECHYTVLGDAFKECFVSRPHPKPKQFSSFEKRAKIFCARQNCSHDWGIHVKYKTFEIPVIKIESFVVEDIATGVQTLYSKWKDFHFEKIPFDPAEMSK
The assay can be described thus: microscale thermophoresis (Monolith NT.[…]). The assay is classed as binding.

In turn, `NC(=O)C[C@H](N)C(=O)O` [asparagine] gave a Kd of 303 µM.
